Laboratory results published in patent publication US20080312160A1, “METHOD OF TREATING ENTERITIS, […], AND DIARRHEA FROM C. DIFFICILE WITH AN A2A ADENOSINE RECEPTOR AGONIST” (priority 2007, published 2008).

What was measured:
[1] = test system: Clostridium difficile toxin A-induced TNF-α production; test: Quantification of TNF-α by ELISA in ileal tissue; assay type: in vivo, mice; settings: ATL 313 + TxA vs TxA only
Protocol: (§1) Mice were fasted overnight, but allowed access to water, and then anesthetized with ketamine and xylazine (60 and 5 mg/Kg intramuscularly, respectively). Through a midline laparotomy, one 4-cm ileal loop was ligated and injected with either 0.1 ml of PBS pH 7.4 (control) or buffer containing TxA (1-10 μg). The abdomen was closed, and the animals were allowed to regain consciousness. Three hours after administration of TxA, mice were sacrificed and the intestinal loops were removed. The loop length, weight, and fluid volume were recorded. A portion of the loop was frozen at −70° C. for measurement of myeloperoxidase (MPO) and ADA activities and TNF-α concentration. The remaining tissue was fixed in 10% formalin and embedded in paraffin, and sections were stained with hematoxylin and eosin for histological grading of ileal inflammation. Some mice were injected with ATL 313 ([…] final concentration) immediately followed by PBS or TxA (5 μg); another group was injected with ZM241385 (5 nM), the selective A2A AR antagonist, immediately followed by PBS or ATL 313 (5 nM)+TxA (5 μg) in the ileal loop. […]
Ileal tissue was harvested from animals in order to measure TNF-α concentration by enzyme-linked immunosorbent assay (ELISA). The results are expressed as pg/mL of TNF-α.

[2] = test system: murine ileal loops injected with Clostridium difficile toxin A (TxA); test: TxA-induced enteritis in ligated murine ileal loops: loop weight and secretion volume; assay type: in vivo, mice
Protocol: For this study, 174 male Swiss mice, 25-30 g body weight, from the animal colony of the Federal University of Ceara were used. The animals received water and food ad libitum.
(§2) Mice were fasted overnight, but allowed access to water, and then anesthetized with ketamine and xylazine (60 and 5 mg/Kg intramuscularly, respectively). Through a midline laparotomy, one 4-cm ileal loop was ligated and injected with either 0.1 ml of PBS pH 7.4 (control) or buffer containing TxA (1-10 μg). The abdomen was closed, and the animals were allowed to regain consciousness. Three hours after administration of TxA, mice were sacrificed and the intestinal loops were removed. The loop length, weight, and fluid volume were recorded. A portion of the loop was frozen at −70° C. for measurement of myeloperoxidase (MPO) and ADA activities and TNF-α concentration. The remaining tissue was fixed in 10% formalin and embedded in paraffin, and sections were stained with hematoxylin and eosin for histological grading of ileal inflammation. Some mice were injected with ATL 313 ([…] final concentration) immediately followed by PBS or TxA (5 μg); another group was injected with ZM241385 (5 nM), the selective A2A AR antagonist, immediately followed by PBS or ATL 313 (5 nM)+TxA (5 μg) in the ileal loop. In another experiment, TxA (5 μg) was injected into the ileal loop, the abdomen was closed, and, 30 min later, the abdomen was reopened and ATL 313 (5 nM) administered.

[3] = test system: Clostridium difficile toxin A (TxA)-induced cell death; test: Cell death in intestinal sections (TUNEL method); assay type: in vivo, mice; settings: ATL 313 + TxA
Protocol: as §2, with “administered. […]” for “administered.”

[4] = test system: Clostridium difficile toxin A-induced ADA activity; test: ADA activity in ileal tissue and ileal secretion; assay type: in vivo, mice; settings: ATL 313 in TxA-challenged animals
Protocol: Mice were fasted overnight, but allowed access to water, and then anesthetized with ketamine and xylazine (60 and 5 mg/Kg intramuscularly, respectively). Through a midline laparotomy, one 4-cm ileal loop was ligated and injected with either 0.1 ml of PBS pH 7.4 (control) or buffer containing TxA (1-10 μg). The abdomen was closed, and the animals were allowed to regain consciousness. Three hours after administration of TxA, mice were sacrificed and the intestinal loops were removed. The loop length, weight, and fluid volume were recorded. A portion of the loop was frozen at −70° C. for measurement of myeloperoxidase (MPO) and ADA activities and TNF-α concentration. […]
The ADA assay is based on the measurement of ammonia produced during the deamination of adenosine by the method of Giusti (1974. Adenosine deaminase, p. 1092-1099. In H. U. Bergmeyer (Ed.), Methods of Enzymatic Analysis, vol. 2. Academic Press Inc., New York), with slight modifications. […] Following the addition of 600 μl of sodium hypochloride (11 mM) in 125 mM NaOH all tubes were again incubated at 37° C. for 30 min and read at 628 nm. The enzyme activity in the tissue and in the ileum contents was expressed as μmols of ammonium formed/mg of protein/hour and as μmols of ammonium formed/hour, respectively.

[5] = test system: Clostridium difficile toxin A-induced MPO activity; test: MPO assay in ileal tissue (neutrophil accumulation); assay type: in vivo, mice
Protocol: as §1
The extent of neutrophil accumulation in ileal tissue was estimated by measuring MPO activity assay. […] MPO activity in the resuspended pellet was assayed by measuring the change in absorbance at 450 nm using o-dianisidine dihydrochloride and 1% hydrogen peroxide. […]

[6] = test system: Clostridium difficile toxin A (TxA)-induced histological alterations; test: Histological grading of ileal inflammation, murine ileal loops; assay type: in vivo, mice; settings: for median injury score: median(range)
Protocol: as §2
The severity of inflammation was scored in coded slides by a pathologist on a scale of 1 (mild) to 3 (severe) for epithelial damage, edema, and neutrophil infiltration.

[7] = test system: C. difficile toxin A-induced inflammation and secretion in rabbit ileal loops; assay type: in vivo, New Zealand white rabbits; settings: ATL 313 100 nM with alanyl-glutamine 25 mM; 5 hours
Protocol: Materials and Methods: New Zealand white rabbits weighing about 2 kg are fasted overnight. Under anesthesia with ketamine (60-80 mg/kg) and xylazine (5-10 mg/kg) administered intramuscularly, a midline abdominal incision is performed to expose the small bowel. After the ileum is flushed, four-cm loops are ligated using double ties with a 1 cm interval between loops. Each of the control loops is injected intraluminally with 1 mL solution of PBS with either C. difficile toxin A (toxin A) (Techlab, Blacksburg, Va.) at 10 μg/mL. Loops from another set of rabbits are treated with the adenosine A2A agonists, JMR 193 (ATL 193) (10 nM, 100 nM, or 1 uM doses) or ATL 146e ([…], 100 nM, 1 uM doses) immediately before the enterotoxin is administered. In addition a rabbit is treated with A2A agonist, ATL 313 (100 nM), alone and another rabbit treated with ATL 313 with alanyl-glutamine (25 mM). After 5 hours of incubation, the ligated small intestinal loops are removed. The length of each ligated ileal segment is measured and intraluminal fluid was quantified. Volume to length ratio, V/L (mL/cm), per loop is calculated. Samples of intestinal stained with hematoxylin-eosin and graded from 0 (none) to 4 (worst) based on the degree of mucosal disruption, increase in cellularity and intensity of vascular congestion.

[8] = ATL 313 5 nM alone, absence of TxA
[9] = ATL 313 5 nM in loop immediately followed by TxA 5 μg, 3 h, vs TxA alone

COC(=O)N1CCC(CC#Cc2nc(N)c3ncn(C4OC(C(=O)NC5CC5)C(O)C4O)c3n2)CC1 (stereo not shown) [ATL 313, 4-{3-[6-Amino-9-(5-cyclopropylcarbamoyl-3,4-dihydroxy-tetrahydro-furan-2-yl)-9H-purin-2-yl]-prop-2-ynyl}-piperidine-1-carboxylic acid methyl ester]
TNF-α production in ileal tissue [1]: significantly reduced (P<0.05)
secretion volume/ileal loop length ratio [2, 8]: did not alter
weight/ileal loop length ratio [2, 8]: did not alter
weight/ileal loop length ratio ([2]; ATL 313 5 nM given 30 min after TxA 5 μg): 28.3 ± 1.4 mg/cm
secretion volume/ileal loop length ratio [2, 9]: significantly (P<0.05) reduced
weight/ileal loop length ratio [2, 9]: significantly (P<0.05) reduced
mucosal cell death [3]: reduced number for cell death similar to the level of PBS control
ADA activity in ileal secretion [4]: significantly reduced (P<0.05)
ADA activity in ileal tissue [4]: significantly reduced (P<0.05)
MPO activity in ileal tissue ([5]; ATL 313 5 nM alone, PBS=1.6±0.6): 2.1±0.2 U/mg
MPO activity in ileal tissue ([5]; ATL 313 5 nM then TxA 5 μg): 1.0±0.6 U/mg
histological injury score ([6]; ATL 313 30 min after injection of TxA 5 μg): 1(0-2)
median injury score ([6]; ATL 313 + TxA 5 μg/loop): 1(0-2)
median injury score ([6]; compound alone, no TxA): 0(0-0)
toxin A-induced inflammation [7]: improved inflammation
toxin A-induced secretion (volume to length ratio) [7]: dramatically improved secretion
